This is an account of results in patent US12679878B2, “CRF2 receptor agonists and their use in therapy” (SANOFI, priority 2020, dated 2026).

Read-outs that look alike come from different tables or passages of the source. Starred links: 1 amine or outer side, 2 acyl side, 3 side chain; linkers in the order of their positions; H or OH if unused. Non-standard residues stand in square brackets, D forms with d. Residues, ends and D or L forms follow the SMILES beside them. Groups on a side chain read outwards from the residue. *: point of attachment. C20 diacid = O=C(O)CCCCCCCCCCCCCCCCCCC(=O)*; C18 diacid = O=C(O)CCCCCCCCCCCCCCCCC(=O)*; γGlu = O=C(O)[C@H](CCC(=O)[*:2])N[*:1]; AEEA = NCCOCCOCC(=O)O; Aib = CC(C)(N)C(=O)O

What all share (type): cell-based
In one test the target is T1, human CRF2α receptor (Homo sapiens, UniProt Q13324).
T1 construct: expressed in transfected cells; host or cells: TeloHEAC
T1 sequence (Q13324 1-411): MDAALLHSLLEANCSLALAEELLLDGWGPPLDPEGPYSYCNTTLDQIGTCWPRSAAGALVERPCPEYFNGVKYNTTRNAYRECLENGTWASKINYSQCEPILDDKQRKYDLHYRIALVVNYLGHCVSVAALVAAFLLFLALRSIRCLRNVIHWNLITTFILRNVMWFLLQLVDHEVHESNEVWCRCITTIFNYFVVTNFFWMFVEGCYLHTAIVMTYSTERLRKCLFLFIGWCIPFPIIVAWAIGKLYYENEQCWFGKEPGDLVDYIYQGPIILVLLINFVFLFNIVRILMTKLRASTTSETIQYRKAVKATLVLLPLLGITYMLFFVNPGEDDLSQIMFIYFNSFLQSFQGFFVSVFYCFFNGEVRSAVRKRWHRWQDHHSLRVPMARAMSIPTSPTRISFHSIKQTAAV
The experiment in a line: cAMP agonism at human CRF2 α receptor in TeloHEAC cells (Example 7). To be noted: cAMP HTRF, TeloHEAC cells stably expressing human CRF2 α. The method in brief:
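Cryopreserved cells are thawed, washed and resuspended in IBMX-containing (2 mM) HEPES-buffered HBSS with or without 0.1% HSA. Compound incubation runs 30 min at room temperature with 2000 cells per well, then cAMP is measured by time-resolved FRET. Potency is expressed as EC50, efficacy relative to urocortin 2 at 1000 nM.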

The subject of another test is rat CRF2R α receptor. As to the kind of experiment: cAMP agonism at rat CRF2R α receptor in A7R5 rat aortic smooth muscle cells (Example 8). The note with it: cAMP HTRF, A7R5 rat aortic smooth muscle cell line, 0% HSA. An outline of the steps:
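Thawed cryopreserved A7R5 cells in HBSS/20 mM HEPES (0 or 0.1% HSA) with 2 mM IBMX, 2000 cells/well, were exposed to compound for 30 min at room temperature. cAMP was read by HTRF (665/620 nm ratio) after 1 h with lysis reagents. Activity was normalised to 1000 nM urocortin 2 as 100%, and EC50 was taken as the concentration giving 50% of maximal activation.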

The next test has as its target T2, CRF1R receptor (Homo sapiens, UniProt P34998).
T2 construct: host or cells: CHO-K1 clone 2
T2 sequence (P34998 24-415): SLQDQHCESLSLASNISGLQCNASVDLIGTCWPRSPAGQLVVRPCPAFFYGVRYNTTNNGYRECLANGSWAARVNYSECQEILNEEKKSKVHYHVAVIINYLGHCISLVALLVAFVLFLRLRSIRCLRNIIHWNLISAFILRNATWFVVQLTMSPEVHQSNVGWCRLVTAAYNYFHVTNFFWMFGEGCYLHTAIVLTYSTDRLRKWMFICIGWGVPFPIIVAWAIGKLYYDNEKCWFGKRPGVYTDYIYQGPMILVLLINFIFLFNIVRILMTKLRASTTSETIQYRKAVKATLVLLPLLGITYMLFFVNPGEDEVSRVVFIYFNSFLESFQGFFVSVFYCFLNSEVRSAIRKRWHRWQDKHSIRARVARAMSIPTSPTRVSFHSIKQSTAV
The experiment in a line: cAMP activity at anti-target CRF1R, CRF1R-overexpression CHO cell line (Example 9). To be noted: CRF1R-overexpression CHO cell line; for EC50: 0% HSA; for Emax: read-out: Emax (%). An outline of the steps: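 cAMP accumulation was read by HTRF after 30 min at room temperature of compound treatment. Cells were cryopreserved CHO cells overexpressing CRF1R, plated at 2000/well in IBMX (2 mM)-containing HBSS/HEPES buffer with 0 or 0.1% HSA. Activity was normalized to 1000 nM UCN2 as 100%.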

The mark [1] stands for this setting: 0% HSA, read-out: EC50 [nM], 0% HSA.
Setting [2] is: 0.1% HSA, read-out: EC50 [nM], 0.1% HSA.

A word on the EC50: it is the concentration giving half of the maximal effect. One may read the Emax as the maximal effect, on the per cent scale that the assay sets.

As to `CC[C@H](C)[C@H](N)C(=O)N[C@H](C(=O)N[C@@H](CC(C)C)C(=O)N[C@@H](CO)C(=O)N[C@@H](CC(C)C)C(=O)N[C@@H](CC(=O)O)C(=O)N[C@H](C(=O)N1CCC[C@H]1C(=O)N[C@H](C(=O)N[C@@H](CCCCN)C(=O)N[C@@H](CC(C)C)C(=O)N[C@@H](CCCCNC(=O)COCCOCCNC(=O)COCCOCCNC(=O)CC[C@H](NC(=O)CCCCCCCCCCCCCCCCC(=O)O)C(=O)O)C(=O)N[C@@H](CCCCN)C(=O)NC(C)(C)C(=O)N[C@@H](CC(C)C)C(=O)N[C@@H](CC(C)C)C(=O)N[C@@H](CCC(=O)O)C(=O)N[C@@H](CCC(N)=O)C(=O)N[C@@H](CCC(=O)O)C(=O)N[C@@H](CCCNC(=N)N)C(=O)N[C@@H](CCC(N)=O)C(=O)N[C@@H](CCCCN)C(=O)N[C@@H](CCCCN)C(=O)N[C@@H](CCC(N)=O)C(=O)N[C@@H](CCCNC(=N)N)C(=O)N[C@@H](CCC(=O)O)C(=O)N[C@@H](CCC(N)=O)C(=O)N[C@@H](C)C(=O)N[C@@H](CCC(=O)O)C(=O)N[C@H](C(=O)N[C@@H](CC(N)=O)C(=O)N[C@@H](CCCCN)C(=O)N[C@@H](CCC(N)=O)C(=O)N[C@H](C(=O)N[C@@H](CC(C)C)C(=O)N[C@@H](C)C(=O)N[C@@H](CCC(N)=O)C(=O)N[C@H](C(N)=O)C(C)C)[C@@H](C)CC)[C@@H](C)O)[C@@H](C)CC)C(C)C)C(C)C` [compound 69] (H-IVLSLDVPIKLK([AEEA-AEEA-γGlu-C18 diacid])K[Aib]LLEQERQKKQREQAETNKQILAQV-NH2; N-terminus assumed), the EC50 was 0.61 nM at human CRF2α receptor (setting [1]), 7.33 nM in the test on rat CRF2R α receptor and greater than 1000 nM on CRF1R receptor. At CRF1R receptor, the Emax stood at 0.02%.
In the same order, the values of `CC[C@H](C)[C@H](N)C(=O)N[C@H](C(=O)N[C@@H](CC(C)C)C(=O)N[C@@H](CO)C(=O)N[C@@H](CC(C)C)C(=O)N[C@@H](CC(=O)O)C(=O)N[C@H](C(=O)N1CCC[C@H]1C(=O)N[C@H](C(=O)N[C@@H](CCCCN)C(=O)N[C@@H](CC(C)C)C(=O)N[C@@H](CCCCNC(=O)COCCOCCNC(=O)COCCOCCNC(=O)CC[C@H](NC(=O)CCCCCCCCCCCCCCCCC(=O)O)C(=O)O)C(=O)N[C@@H](CCC(N)=O)C(=O)N[C@H](C(=O)N[C@@H](CC(C)C)C(=O)N[C@@H](CC(C)C)C(=O)N[C@@H](CCC(=O)O)C(=O)N[C@@H](CCC(N)=O)C(=O)N[C@@H](CCC(=O)O)C(=O)N[C@@H](CCCNC(=N)N)C(=O)N[C@@H](CCC(N)=O)C(=O)N[C@@H](CCCCN)C(=O)N[C@@H](CCCCN)C(=O)N[C@@H](CCC(N)=O)C(=O)N[C@@H](CCCNC(=N)N)C(=O)N[C@@H](CCC(=O)O)C(=O)N[C@@H](CCC(N)=O)C(=O)N[C@@H](C)C(=O)N[C@@H](CCC(=O)O)C(=O)N[C@H](C(=O)N[C@@H](CC(N)=O)C(=O)NC(C)(C)C(=O)N[C@@H](CCC(N)=O)C(=O)N[C@H](C(=O)N[C@@H](CC(C)C)C(=O)N[C@@H](C)C(=O)N[C@@H](CCC(N)=O)C(=O)N[C@H](C(N)=O)C(C)C)[C@@H](C)CC)[C@@H](C)O)[C@@H](C)CC)[C@@H](C)CC)C(C)C)C(C)C` [compound 70] (H-IVLSLDVPIKLK([AEEA-AEEA-γGlu-C18 diacid])QILLEQERQKKQREQAETN[Aib]QILAQV-NH2; N-terminus assumed) are 0.91 nM, 8.72 nM, greater than 1000 nM and 3.03%.
As to `CC[C@H](C)[C@H](N)C(=O)N[C@H](C(=O)N[C@@H](CC(C)C)C(=O)N[C@@H](CO)C(=O)N[C@@H](CC(C)C)C(=O)N[C@@H](CC(=O)O)C(=O)N[C@H](C(=O)N1CCC[C@H]1C(=O)N[C@H](C(=O)N[C@@H](CCCCN)C(=O)N[C@@H](CC(C)C)C(=O)N[C@@H](CCCCNC(=O)COCCOCCNC(=O)COCCOCCNC(=O)CC[C@H](NC(=O)CCCCCCCCCCCCCCCCCCC(=O)O)C(=O)O)C(=O)N[C@@H](CCC(N)=O)C(=O)N[C@H](C(=O)N[C@@H](CC(C)C)C(=O)N[C@@H](CC(C)C)C(=O)N[C@@H](CCC(=O)O)C(=O)N[C@@H](CCC(N)=O)C(=O)N[C@@H](CCC(=O)O)C(=O)N[C@@H](CCCNC(=N)N)C(=O)N[C@@H](CCC(N)=O)C(=O)N[C@@H](CCCCN)C(=O)N[C@@H](CCCCN)C(=O)N[C@@H](CCC(N)=O)C(=O)N[C@@H](CCCNC(=N)N)C(=O)N[C@@H](CCC(=O)O)C(=O)N[C@@H](CCC(N)=O)C(=O)N[C@@H](C)C(=O)N[C@@H](CCC(=O)O)C(=O)N[C@H](C(=O)N[C@@H](CC(N)=O)C(=O)NC(C)(C)C(=O)N[C@@H](CCC(N)=O)C(=O)N[C@H](C(=O)N[C@@H](CC(C)C)C(=O)N[C@@H](C)C(=O)N[C@@H](CCC(N)=O)C(=O)N[C@H](C(N)=O)C(C)C)[C@@H](C)CC)[C@@H](C)O)[C@@H](C)CC)[C@@H](C)O)C(C)C)C(C)C` [compound 80] (H-IVLSLDVPTKLK([AEEA-AEEA-γGlu-C20 diacid])QILLEQERQKKQREQAETN[Aib]QILAQV-NH2), the EC50 at human CRF2α receptor (setting [1]) is 0.9 nM; on human CRF2α receptor (setting [2]), 92.5 nM; in the test on rat CRF2R α receptor it was 5.2 nM; on CRF1R receptor it was greater than 1000 nM. The Emax at CRF1R receptor amounted to 12.7%.
In the same order, the values of `CC[C@H](C)[C@H](N)C(=O)N[C@H](C(=O)N[C@@H](CC(C)C)C(=O)N[C@@H](CO)C(=O)N[C@@H](CC(C)C)C(=O)N[C@@H](CC(=O)O)C(=O)N[C@H](C(=O)N1CCC[C@H]1C(=O)N[C@H](C(=O)N[C@@H](CCCCN)C(=O)N[C@@H](CC(C)C)C(=O)N[C@@H](CCCCNC(=O)COCCOCCNC(=O)COCCOCCNC(=O)CC[C@H](NC(=O)CCCCCCCCCCCCCCCCC(=O)O)C(=O)O)C(=O)N[C@@H](CCC(N)=O)C(=O)N[C@H](C(=O)N[C@@H](CC(C)C)C(=O)N[C@@H](CC(C)C)C(=O)N[C@@H](CCCCN)C(=O)N[C@@H](CCC(N)=O)C(=O)N[C@@H](CCC(=O)O)C(=O)N[C@@H](CCCNC(=N)N)C(=O)N[C@@H](CCC(N)=O)C(=O)N[C@@H](CCCCN)C(=O)N[C@@H](CCCCN)C(=O)N[C@@H](CCC(N)=O)C(=O)N[C@@H](CCCNC(=N)N)C(=O)N[C@@H](CCC(=O)O)C(=O)N[C@@H](CCC(N)=O)C(=O)N[C@@H](C)C(=O)N[C@@H](CCC(=O)O)C(=O)N[C@H](C(=O)N[C@@H](CC(N)=O)C(=O)N[C@@H](CCCCN)C(=O)N[C@@H](CCC(N)=O)C(=O)N[C@H](C(=O)N[C@@H](CC(C)C)C(=O)N[C@@H](C)C(=O)N[C@@H](CCC(N)=O)C(=O)N[C@H](C(N)=O)C(C)C)[C@@H](C)CC)[C@@H](C)O)[C@@H](C)CC)[C@@H](C)CC)C(C)C)C(C)C` [compound 85] (H-IVLSLDVPIKLK([AEEA-AEEA-γGlu-C18 diacid])QILLKQERQKKQREQAETNKQILAQV-NH2; N-terminus assumed) are 0.1 nM, 3.58 nM, 0.73 nM, greater than 1000 nM and 0.14%.
